Data reported in the NIST ThermoML archive (doi:10.1016/j.jct.2016.07.012).
Several values for one entry are separate records, joined by “and”; a condition that tells them apart may be missing. Equal entries are not always repeated. ± gives the expanded uncertainty stated by the source.

Test: molar heat capacity at constant pressure
Conditions: 101.33 kPa, Metastable crystal, Small (less than 1 g) adiabatic calorimetry

CCCCn1cc[n+](C)c1.F[P-](F)(F)(F)(F)F [1-butyl-3-methylimidazolium hexafluorophosphate]
Conditions | molar heat capacity at constant pressure
5.14 K | 2.42 ± 0.07 J/K/mol
5.39 K | 2.76 ± 0.08 J/K/mol and 1.64 ± 0.05 J/K/mol
5.67 K | 1.92 ± 0.06 J/K/mol
5.74 K | 3.28 ± 0.09 J/K/mol
6.01 K | 2.31 ± 0.07 J/K/mol
6.1 K | 3.85 ± 0.1 J/K/mol
6.43 K | 2.83 ± 0.08 J/K/mol
6.54 K | 4.59 ± 0.11 J/K/mol
6.93 K | 3.51 ± 0.09 J/K/mol
7.06 K | 5.54 ± 0.13 J/K/mol
7.43 K | 4.3 ± 0.1 J/K/mol
7.59 K | 6.57 ± 0.15 J/K/mol
7.94 K | 5.16 ± 0.12 J/K/mol
8.12 K | 7.67 ± 0.17 J/K/mol
8.46 K | 6.12 ± 0.14 J/K/mol
8.66 K | 8.84 ± 0.19 J/K/mol
8.98 K | 7.15 ± 0.16 J/K/mol
9.2 K | 10.06 ± 0.21 J/K/mol
9.51 K | 8.25 ± 0.17 J/K/mol
9.75 K | 11.33 ± 0.23 J/K/mol
10.05 K | 9.41 ± 0.19 J/K/mol
10.36 K | 12.83 ± 0.24 J/K/mol
10.66 K | 10.82 ± 0.21 J/K/mol
11.05 K | 14.53 ± 0.27 J/K/mol
11.34 K | 12.43 ± 0.23 J/K/mol
11.75 K | 16.3 ± 0.29 J/K/mol
12.02 K | 14.11 ± 0.24 J/K/mol
12.45 K | 18.11 ± 0.3 J/K/mol
12.71 K | 15.86 ± 0.27 J/K/mol
13.16 K | 19.96 ± 0.32 J/K/mol
13.41 K | 17.66 ± 0.28 J/K/mol
13.87 K | 21.84 ± 0.34 J/K/mol
14.11 K | 19.5 ± 0.29 J/K/mol
14.59 K | 23.69 ± 0.35 J/K/mol
14.82 K | 21.33 ± 0.3 J/K/mol
15.31 K | 25.67 ± 0.36 J/K/mol
15.64 K | 23.71 ± 0.33 J/K/mol
16.14 K | 28.07 ± 0.37 J/K/mol
16.58 K | 26.38 ± 0.34 J/K/mol
17.09 K | 30.62 ± 0.37 J/K/mol
17.53 K | 28.96 ± 0.35 J/K/mol
18.04 K | 33.1 ± 0.37 J/K/mol
18.47 K | 31.53 ± 0.35 J/K/mol
18.99 K | 35.56 ± 0.37 J/K/mol
19.42 K | 34.1 ± 0.36 J/K/mol
19.94 K | 37.99 ± 0.37 J/K/mol
20.38 K | 36.68 ± 0.36 J/K/mol
21.2 K | 41.25 ± 0.39 J/K/mol
21.63 K | 40.09 ± 0.38 J/K/mol
22.78 K | 45.26 ± 0.41 J/K/mol
23.2 K | 44.28 ± 0.4 J/K/mol
24.36 K | 49.25 ± 0.42 J/K/mol
24.78 K | 48.5 ± 0.41 J/K/mol
25.94 K | 53.1 ± 0.43 J/K/mol
26.36 K | 52.53 ± 0.42 J/K/mol
27.42 K | 56.44 ± 0.44 J/K/mol
27.74 K | 55.76 ± 0.43 J/K/mol
28.99 K | 60 ± 0.44 J/K/mol
29.16 K | 59.25 ± 0.44 J/K/mol
30.59 K | 63.64 ± 0.39 J/K/mol
30.76 K | 63.06 ± 0.39 J/K/mol
32.36 K | 67.48 ± 0.41 J/K/mol
32.52 K | 67.01 ± 0.41 J/K/mol
34.28 K | 71.38 ± 0.43 J/K/mol
34.44 K | 71.11 ± 0.43 J/K/mol
36.21 K | 75.09 ± 0.45 J/K/mol
36.36 K | 74.97 ± 0.45 J/K/mol
38.14 K | 78.66 ± 0.47 J/K/mol
38.29 K | 78.65 ± 0.47 J/K/mol
40.07 K | 82.09 ± 0.49 J/K/mol
40.21 K | 82.2 ± 0.49 J/K/mol
42.09 K | 85.6 ± 0.51 J/K/mol
42.23 K | 85.83 ± 0.51 J/K/mol
44.21 K | 89.2 ± 0.53 J/K/mol
44.36 K | 89.57 ± 0.53 J/K/mol
46.33 K | 92.75 ± 0.55 J/K/mol
46.49 K | 93.18 ± 0.55 J/K/mol
48.45 K | 96.18 ± 0.56 J/K/mol
48.62 K | 96.7 ± 0.57 J/K/mol
50.58 K | 99.47 ± 0.58 J/K/mol
50.75 K | 100 ± 0.6 J/K/mol
52.71 K | 102.6 ± 0.6 J/K/mol
52.88 K | 103.3 ± 0.6 J/K/mol
54.84 K | 105.6 ± 0.6 J/K/mol
55.01 K | 106.3 ± 0.6 J/K/mol
56.97 K | 108.5 ± 0.6 J/K/mol
57.15 K | 109.3 ± 0.6 J/K/mol
59.11 K | 111.3 ± 0.6 J/K/mol
59.29 K | 112.2 ± 0.7 J/K/mol
61.24 K | 114 ± 0.7 J/K/mol
61.43 K | 115 ± 0.7 J/K/mol
63.37 K | 116.6 ± 0.7 J/K/mol
63.57 K | 117.8 ± 0.7 J/K/mol
65.51 K | 119.2 ± 0.7 J/K/mol
65.71 K | 120.5 ± 0.7 J/K/mol
67.65 K | 121.8 ± 0.7 J/K/mol
67.86 K | 123.3 ± 0.7 J/K/mol
69.79 K | 124.4 ± 0.7 J/K/mol
70.01 K | 126 ± 0.7 J/K/mol
72.04 K | 127 ± 0.7 J/K/mol
72.26 K | 128.8 ± 0.7 J/K/mol
74.39 K | 129.8 ± 0.7 J/K/mol
74.61 K | 131.7 ± 0.8 J/K/mol
76.74 K | 132.5 ± 0.8 J/K/mol
76.97 K | 134.6 ± 0.8 J/K/mol
78.34 K | 134.5 ± 0.8 J/K/mol
78.72 K | 137.3 ± 0.8 J/K/mol
79.09 K | 135.1 ± 0.8 J/K/mol
79.34 K | 137.4 ± 0.8 J/K/mol
80.13 K | 136.3 ± 0.8 J/K/mol
80.5 K | 139.2 ± 0.8 J/K/mol
81.45 K | 137.7 ± 0.8 J/K/mol
81.7 K | 140.2 ± 0.8 J/K/mol
81.8 K | 138.1 ± 0.8 J/K/mol
82.15 K | 141.2 ± 0.8 J/K/mol
83.48 K | 139.8 ± 0.8 J/K/mol
83.81 K | 140.2 ± 0.8 J/K/mol
83.82 K | 143 ± 0.8 J/K/mol
84.07 K | 142.9 ± 0.8 J/K/mol
85.17 K | 141.6 ± 0.8 J/K/mol
85.49 K | 145 ± 0.8 J/K/mol
86.86 K | 143.5 ± 0.8 J/K/mol
87.17 K | 146.9 ± 0.8 J/K/mol
88.56 K | 145.3 ± 0.8 J/K/mol
88.85 K | 148.6 ± 0.8 J/K/mol
90.27 K | 147.2 ± 0.8 J/K/mol
90.55 K | 150.8 ± 0.8 J/K/mol
91.99 K | 149 ± 0.8 J/K/mol
92.25 K | 152.7 ± 0.8 J/K/mol
93.71 K | 150.9 ± 0.8 J/K/mol
93.96 K | 154.7 ± 0.8 J/K/mol
95.45 K | 152.7 ± 0.8 J/K/mol
95.67 K | 156.7 ± 0.9 J/K/mol
97.19 K | 154.7 ± 0.8 J/K/mol
97.39 K | 159.1 ± 0.9 J/K/mol
98.94 K | 156.5 ± 0.9 J/K/mol
99.12 K | 160.7 ± 0.9 J/K/mol
100.69 K | 158.4 ± 0.9 J/K/mol
100.85 K | 162.3 ± 0.9 J/K/mol
102.5 K | 160.3 ± 0.9 J/K/mol
102.65 K | 164.4 ± 0.9 J/K/mol
104.38 K | 162.4 ± 0.9 J/K/mol
104.51 K | 166.4 ± 0.9 J/K/mol
106.27 K | 164.4 ± 0.9 J/K/mol
106.38 K | 168.5 ± 0.9 J/K/mol
108.17 K | 166.5 ± 0.9 J/K/mol
108.26 K | 170.5 ± 0.9 J/K/mol
110.06 K | 168.6 ± 0.9 J/K/mol
110.13 K | 172.5 ± 0.9 J/K/mol
111.96 K | 170.7 ± 0.9 J/K/mol
112.01 K | 174.6 ± 0.9 J/K/mol
113.86 K | 172.8 ± 0.9 J/K/mol
113.9 K | 176.6 ± 1 J/K/mol
115.77 K | 174.9 ± 0.9 J/K/mol
115.78 K | 178.7 ± 1 J/K/mol
117.67 K | 180.7 ± 1 J/K/mol
117.68 K | 177.1 ± 1 J/K/mol
119.56 K | 182.8 ± 1 J/K/mol
119.59 K | 179.2 ± 1 J/K/mol
121.46 K | 184.9 ± 1 J/K/mol
121.5 K | 181.4 ± 1 J/K/mol
123.35 K | 186.9 ± 1 J/K/mol
123.41 K | 183.7 ± 1 J/K/mol
125.25 K | 189.1 ± 1 J/K/mol
